We go through two molecules from article PMC6274350, “Design, Synthesis, and Cytotoxicity of 5-Fluoro-2-methyl-6-(4-aryl-piperazin-1-yl) Benzoxazoles” (Molecules, 2016).

Usually viability stands for a read-out of living cells in per cent, often relative to untreated cells. Usually melting point stands for the temperature, or range, at which the solid turns liquid.

A short description of series [1]: CellTiter-Glo luminescent cell viability (cytotoxicity) assay on hepatocytes. In kind it is cell-based, human. The conditions noted are these: human, Liver cells, hepatocytes (HepaRG), 24 h, vs DMSO vehicle. As for the experimental part: (§1) The cytotoxicity of prepared benzoxazoles (7a–j) and intermediates (6a–j and 9) were measured by applying the CellTiter-Glo® luminescent cell proliferation assay (G755A, Promega, Madison, WI, USA). This method permits the determination of viable cells numbers in the culture based on quantitation of the ATP present, which denotes the presence of metabolically active cells. In vitro cytotoxicity analysis was overall performed following the protocol as described in “Guidance Document on Using in Vitro Data to Estimate in Vivo Starting Doses for Acute Toxicity Based on Recommendations” [18]. Human A-549 cells are human lung cancer epithelial cells, which were chosen as the tumor model, whereas the HepaRG™ cell line is a classic hepatic cell line that retains many characteristics of primary human hepatocytes. HepaRG™ cells are terminally differentiated.
(§2) Human cell cultures: Hepatocytes (HepaRG^TM cells) were obtained from Life Technologies, and were cultivated in William’s E Medium (Gibco, Life Technologies, Waltham, MA, USA) and supplemented with 1x GlutaMAX™ plus 1x HepaRG^TM General Purpose Medium Supplement in 25-cm^2 or 75-cm^2 flasks (TPP, Trasadingen, Switzerland) at 37 °C and 5% CO2. Lung cancer epithelial cells A-549 were propagated in Epilife Medium (Gibco, Life Technologies; MEPICF) and combined with CaCl2 and 1x-growth-supplement containing penicillin and streptomycin (Gibco, Life Technologies). For sub-culturing, cells were split at a ratio of 1:4 to 1:8. For cryopreservation, cells were frozen in 10% DMSO in liquid nitrogen.
(§3) Human cytotoxicity assay: Human hepatocytes or human lung carcinoma cells were seeded into sterile black clear-bottomed polystyrene Corning® CellBind® 96-well plates (Munich, Germany) at a density of 20,000 cells/well after calculating cell numbers from trypsinized samples in a classical Neubauer Improved hemocytometer (VWR, Munich, Germany). The cells were grown for 24 h at 37 °C in a 5% CO2 atmosphere in Epilife medium (keratinocytes) or William′s E medium (hepatocytes). After a 24-h recovery period, media were removed from the wells by aspiration. The cells were then immediately exposed to the respective test compounds or reference antibiotics (prepared in advance in 100 µL of the same media) for 24 h 37 °C with 5% CO2. The concentration tested ranged from 0.1 µM to 500 µM (0.1 µM, 1 µM, 10 µM, 50 µM, 100 µM, 250 µM, and 500 µM) and was formulated as a 100× concentrated stock each, resulting in a final constant DMSO concentration of 1% per 100-µL sample volume. Test series were each performed in triplicate, and additionally included a vehicle reference (DMSO only) plus another internal control for evaluating overall assay performance. Additionally, cells were visually examined under a light microscope for any morphological abnormalities relative to the untreated cells. Subsequently, cell viability, as an indicator of potential cytotoxicity, was measured by applying the CellTiter-Glo® luminescent cell proliferation assay (G755A, Promega, Madison, WI, USA). This method permits the determination of the number of viable cells in culture based on quantitation of the ATP present, which denotes the presence of metabolically active cells. To this end, 100 µL (equal to the volume of culture medium) of the kit-provided CellTiter-Glo® reagent (reconstituted by transferring the thawed CellTiter-Glo® buffer to the lyophilized enzyme and substrate mixture) was directly added to each well with a repetitive dispensing pipette. The contents were then mixed for 2 min at room temperature on an orbital minishaker (IKA® MS3 digital, Staufen, Germany) at 450 rpm to induce efficient cell lysis, and then further incubated for 10 min at room temperature for stabilization of the resultant luminescent signal. […]
(In general: In ATP-based viability assays light output follows the ATP content of the culture.)

Series [2] deals with HepaRG cells (liver cells, hepatocytes). The description is as above. The class given is cell-based, human. As for the experimental part:
as §1, §2, §3

Series [3] concerns A-549 lung carcinoma cells. Briefly: CellTiter-Glo luminescent cell viability (cytotoxicity) assay on lung cancer cells. In kind it is cell-based, human. As for the experimental part:
as §1, §2, §3

Series [4] is described as follows: Visible solubility / precipitation of test compounds in cell-culture media. The class given is physicochemical. As for the experimental part: Since the majority of test compound solutions with concentrations above 50 µM precipitated in cell-culture media, we performed cytotoxicity assays for healthy and cancer cells at 50 µM.
The mark [5] stands for this setting: Homo sapiens, A549, Lung cancer cells (A-549), 24 h, vs DMSO vehicle.

Take `O=[N+]([O-])c1cc(F)c(N2CCN(c3ccc(F)cc3)CC2)cc1O` [Compound 6d, 4-Fluoro-5-[4-(4-fluoro-phenyl)-piperazin-1-yl]-2-nitro-phenol]: the melting point is 151 to 152 °C. In series [1], the viability at 24 h, 0.1 µM turned out to be 94%; the viability at 24 h, 1 µM is 87%; the viability at 24 h, 10 µM worked out at 101%; the viability at 24 h, 50 µM is 57%. Further, in series [1], the viability at 24 h, 100 µM came out at 62%; the viability at 24 h, 250 µM was determined as 44%; the viability at 24 h, 500 µM was 13%. Besides, in series [2] (hepatocytes (HepaRG), equal toxicity to both cell lines), the CT50 was ~ 50 µM. In series [3] (A-549 lung cancer cells, equal toxicity to both cell lines), the CT50 is listed as ~ 50 µM. For the same molecule, in series [3] (setting [5]), the viability at 0.1 µM amounted to 103%, the viability at 1 µM was determined as 111%, the viability at 10 µM was 78% and the viability at 50 µM is 58%. Besides, in series [3] (setting [5]), the viability at 100 µM was determined as 54% and the viability at 250 µM amounted to 46%. For the same molecule, the viability at 500 µM in series [3] (Homo sapiens, A549, Lung cancer cells (A-549), 500 µM, 24 h, vs DMSO vehicle) turned out to be 34%. Further, in series [4] (cell-culture media, 0.1-500 µM), the “Solubility at test concentrations” value was “completely soluble at all concentrations”.
For the molecule `Cc1nc2cc(F)c(N3CCN(c4ccc(Cl)c(Cl)c4)CC3)cc2o1` [Compound 7j, 6-[4-(3,4-Dichloro-phenyl)-piperazin-1-yl]-5-fluoro-2-methyl-benzooxazole], the melting point fell in the range of 147 to 148 °C. For the same molecule, in series [1], the viability at 24 h, 0.1 µM is 100%; the viability at 24 h, 1 µM worked out at 90%; the viability at 24 h, 10 µM is 85%; the viability at 24 h, 50 µM was 65%. Further, in series [1], the viability at 24 h, 100 µM was 27%; the viability at 24 h, 250 µM came out at 7%; the viability at 24 h, 500 µM worked out at 7%. Moreover, in series [2] (50 µM, HepaRG vs A-549), the “Toxicity to healthy cells versus lung cancer cells” value is reported as “more toxic to healthy cells compared with lung cancer cells”. In series [3] (setting [5]), the viability at 0.1 µM amounted to 98%, the viability at 1 µM was found to be 94%, the viability at 10 µM was determined as 81% and the viability at 50 µM came out at 70%. In series [3] (setting [5]), the viability at 100 µM was found to be 47% and the viability at 250 µM came to 28%. Also, the “Precipitation in cell-culture media” value in series [4] (50 µM, no conclusion on cytotoxicity possible) is “precipitation problem”.
